Results published in ChEMBL document CHEMBL1142520, “Potent, selective and orally bioavailable dihydropyrimidine inhibitors of Rho kinase (ROCK1) as potential therapeutic agents for cardiovascular diseases” (J Med Chem, 2008).
Each block holds one molecule with its values, some of them ahead of it.

Legend:
[1] = biological target: Rho-associated protein kinase 1 (Homo sapiens, UniProt Q13464); test: Inhibition of human recombinant ROCK1 kinase expressed in insect Sf9 cells by SPA
[2] = Oral bioavailability in Sprague-Dawley rat at 1.1 mg/kg; format: ADME, organism-based; conditions: in vivo
[3] = tested on: Rattus norvegicus; test: (§1) Volume of distribution at steady state in Sprague-Dawley rat at 1.1 mg/kg, iv; format: ADME, organism-based; design: dose 1.1 mg/kg, route intravenous; conditions: in vivo
[4] = tested on: Rattus norvegicus; test: (§2) Half life in Sprague-Dawley rat at 1.1 mg/kg, iv; format: ADME, organism-based; design: dose 1.1 mg/kg, route intravenous; conditions: in vivo
[5] = biological target: Cytochrome P450 3A4 (Homo sapiens, UniProt P08684); test: Inhibition of CYP3A4; format: ADME
Chain of Cytochrome P450 3A4 (P08684 whole entry): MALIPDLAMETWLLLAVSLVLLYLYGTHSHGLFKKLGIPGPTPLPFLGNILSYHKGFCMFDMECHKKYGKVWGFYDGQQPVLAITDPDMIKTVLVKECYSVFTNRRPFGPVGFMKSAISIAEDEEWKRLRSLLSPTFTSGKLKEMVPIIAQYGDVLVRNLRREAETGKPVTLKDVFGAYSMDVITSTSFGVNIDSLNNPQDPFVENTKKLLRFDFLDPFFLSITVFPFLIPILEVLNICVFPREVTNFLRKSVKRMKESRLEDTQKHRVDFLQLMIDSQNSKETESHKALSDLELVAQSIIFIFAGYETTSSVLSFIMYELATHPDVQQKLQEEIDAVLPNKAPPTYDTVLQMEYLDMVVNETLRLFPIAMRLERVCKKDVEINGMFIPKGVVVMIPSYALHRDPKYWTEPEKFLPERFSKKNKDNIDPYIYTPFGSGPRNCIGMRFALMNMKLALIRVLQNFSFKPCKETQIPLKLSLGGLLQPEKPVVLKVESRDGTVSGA

[6] = biological target: Cytochrome P450 2D6 (Homo sapiens, UniProt P10635); test: Inhibition of CYP2D6; format: ADME
Chain of Cytochrome P450 2D6 (P10635 whole entry): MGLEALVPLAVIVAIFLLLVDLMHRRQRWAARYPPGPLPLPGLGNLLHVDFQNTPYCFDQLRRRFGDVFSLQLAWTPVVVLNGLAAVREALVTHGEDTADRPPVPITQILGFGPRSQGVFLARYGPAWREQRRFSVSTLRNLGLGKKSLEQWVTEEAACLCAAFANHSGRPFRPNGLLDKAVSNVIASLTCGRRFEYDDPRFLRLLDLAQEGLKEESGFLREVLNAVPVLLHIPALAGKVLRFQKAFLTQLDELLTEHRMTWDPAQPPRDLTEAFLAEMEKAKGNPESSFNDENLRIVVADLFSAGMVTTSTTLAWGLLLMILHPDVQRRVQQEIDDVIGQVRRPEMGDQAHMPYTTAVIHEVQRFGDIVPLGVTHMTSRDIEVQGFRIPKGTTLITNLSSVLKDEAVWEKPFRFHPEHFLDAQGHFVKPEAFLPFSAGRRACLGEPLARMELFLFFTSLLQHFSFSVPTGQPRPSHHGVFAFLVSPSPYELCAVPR

[7] = Oral bioavailability in Sprague-Dawley rat at 1.2 mg/kg; format: ADME, organism-based; conditions: in vivo
[8] = Volume of distribution at steady state in Sprague-Dawley rat at 1.2 mg/kg, iv; format: ADME, organism-based; design: dose 1.2 mg/kg, route intravenous; conditions: in vivo, read-out: Vdss
[9] = Half life in Sprague-Dawley rat at 1.2 mg/kg, iv; format: ADME, organism-based; design: dose 1.2 mg/kg, route intravenous; conditions: in vivo
[10] = Clearance in Sprague-Dawley rat at 1.2 mg/kg, iv; format: ADME, organism-based; design: dose 1.2 mg/kg, route intravenous; conditions: in vivo
[11] = Oral bioavailability in monkey; format: ADME, organism-based, Macaca mulatta; conditions: rhesus monkey, in vivo
[12] = Half life in monkey; format: ADME, organism-based, Macaca mulatta; conditions: rhesus monkey, in vivo
[13] = biological target: Cytochrome P450 2C9 (Homo sapiens, UniProt P11712); test: Inhibition of CYP2C9; format: ADME
Chain of Cytochrome P450 2C9 (P11712 whole entry): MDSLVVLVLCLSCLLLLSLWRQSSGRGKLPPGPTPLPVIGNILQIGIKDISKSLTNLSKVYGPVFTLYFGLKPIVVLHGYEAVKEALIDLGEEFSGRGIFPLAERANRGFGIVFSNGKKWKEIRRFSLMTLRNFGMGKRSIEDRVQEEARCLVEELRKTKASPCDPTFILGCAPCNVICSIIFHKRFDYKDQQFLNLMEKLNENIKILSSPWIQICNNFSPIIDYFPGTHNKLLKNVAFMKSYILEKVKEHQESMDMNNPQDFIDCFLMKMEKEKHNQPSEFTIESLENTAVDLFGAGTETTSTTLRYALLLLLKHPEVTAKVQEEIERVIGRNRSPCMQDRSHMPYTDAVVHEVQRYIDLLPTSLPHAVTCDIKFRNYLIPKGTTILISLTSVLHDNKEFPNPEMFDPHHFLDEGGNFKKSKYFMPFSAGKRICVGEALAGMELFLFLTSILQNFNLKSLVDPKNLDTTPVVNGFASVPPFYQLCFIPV

[14] = tested on: Aorta; test: Inhibition of phenylephrine-induced aortic ring contraction in Sprague-Dawley rat; format: functional, tissue-based
[15] = biological target: Ribosomal protein S6 kinase beta-1 (Homo sapiens, UniProt P23443); test: Inhibition of p70S6K
Chain of Ribosomal protein S6 kinase beta-1 (P23443 whole entry): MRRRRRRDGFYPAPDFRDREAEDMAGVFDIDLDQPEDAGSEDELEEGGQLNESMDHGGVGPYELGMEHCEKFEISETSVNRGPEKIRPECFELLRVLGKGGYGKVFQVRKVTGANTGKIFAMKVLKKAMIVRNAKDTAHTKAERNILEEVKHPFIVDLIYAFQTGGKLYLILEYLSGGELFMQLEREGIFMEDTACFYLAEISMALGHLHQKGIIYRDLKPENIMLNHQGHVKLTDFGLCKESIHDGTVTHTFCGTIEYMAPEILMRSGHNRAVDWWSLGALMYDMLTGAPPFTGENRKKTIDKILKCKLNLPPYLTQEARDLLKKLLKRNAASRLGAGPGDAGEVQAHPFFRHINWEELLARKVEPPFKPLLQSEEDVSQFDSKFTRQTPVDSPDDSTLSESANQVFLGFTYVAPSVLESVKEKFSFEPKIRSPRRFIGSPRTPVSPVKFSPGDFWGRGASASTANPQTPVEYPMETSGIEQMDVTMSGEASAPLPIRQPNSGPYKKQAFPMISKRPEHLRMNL

[16] = biological target: Ribosomal protein S6 kinase alpha-1 (Homo sapiens, UniProt Q15418); test: Inhibition of RSK1
Chain of Ribosomal protein S6 kinase alpha-1 (Q15418 whole entry): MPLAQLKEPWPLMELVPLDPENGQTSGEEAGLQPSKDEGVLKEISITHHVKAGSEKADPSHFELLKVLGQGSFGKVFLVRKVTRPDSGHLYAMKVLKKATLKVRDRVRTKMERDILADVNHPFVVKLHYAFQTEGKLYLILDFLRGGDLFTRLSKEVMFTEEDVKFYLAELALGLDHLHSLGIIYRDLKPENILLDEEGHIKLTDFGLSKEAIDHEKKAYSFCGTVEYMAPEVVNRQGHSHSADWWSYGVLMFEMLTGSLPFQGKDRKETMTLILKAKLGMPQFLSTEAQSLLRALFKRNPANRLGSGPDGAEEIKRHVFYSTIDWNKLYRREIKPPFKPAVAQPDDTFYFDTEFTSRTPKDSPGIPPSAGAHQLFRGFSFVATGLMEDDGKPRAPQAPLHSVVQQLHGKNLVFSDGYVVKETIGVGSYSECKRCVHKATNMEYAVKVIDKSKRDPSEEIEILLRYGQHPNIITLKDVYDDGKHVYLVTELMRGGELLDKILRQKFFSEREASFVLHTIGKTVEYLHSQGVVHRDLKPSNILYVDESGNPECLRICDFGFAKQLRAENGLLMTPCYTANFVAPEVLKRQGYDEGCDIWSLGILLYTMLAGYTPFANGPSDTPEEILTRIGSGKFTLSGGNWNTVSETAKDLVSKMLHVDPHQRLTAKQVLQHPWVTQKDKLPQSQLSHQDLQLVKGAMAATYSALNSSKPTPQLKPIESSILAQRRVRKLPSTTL

[17] = tested on: Rattus norvegicus; test: Decrease in mean arterial pressure in conscious spontaneous hypertensive rat model at 30 mg/kg, po
[18] = Oral bioavailability in Sprague-Dawley rat at 1.8 mg/kg; format: ADME, organism-based; conditions: in vivo
[19] = Volume of distribution at steady state in Sprague-Dawley rat at 1.8 mg/kg, iv; format: ADME, organism-based; design: dose 1.8 mg/kg, route intravenous; conditions: in vivo, read-out: Vdss
[20] = Half life in Sprague-Dawley rat at 1.8 mg/kg, iv; format: ADME, organism-based; design: dose 1.8 mg/kg, route intravenous; conditions: in vivo
[21] = Clearance in Sprague-Dawley rat at 1.8 mg/kg, iv; format: ADME, organism-based; design: dose 1.8 mg/kg, route intravenous; conditions: in vivo
[22] = as §1; format: ADME, organism-based; design: dose 1.1 mg/kg, route intravenous; conditions: Sprague-Dawley, in vivo, read-out: Vdss
[23] = as §2; format: ADME, organism-based; design: dose 1.1 mg/kg, route intravenous; conditions: Sprague-Dawley, in vivo
[24] = Clearance in Sprague-Dawley rat at 1.1 mg/kg, iv; format: ADME, organism-based; design: dose 1.1 mg/kg, route intravenous; conditions: in vivo
[25] = Volume of distribution at steady state in Sprague-Dawley rat at 1.3 mg/kg, iv; format: ADME, organism-based; design: dose 1.3 mg/kg, route intravenous; conditions: in vivo, read-out: Vdss
[26] = Clearance in Sprague-Dawley rat at 1.3 mg/kg, iv; format: ADME, organism-based; design: dose 1.3 mg/kg, route intravenous; conditions: in vivo
[27] = Half life in Sprague-Dawley rat at 1.3 mg/kg, iv; format: ADME, organism-based; design: dose 1.3 mg/kg, route intravenous; conditions: in vivo

Chain of Rho-associated protein kinase 1 (Q13464 whole entry): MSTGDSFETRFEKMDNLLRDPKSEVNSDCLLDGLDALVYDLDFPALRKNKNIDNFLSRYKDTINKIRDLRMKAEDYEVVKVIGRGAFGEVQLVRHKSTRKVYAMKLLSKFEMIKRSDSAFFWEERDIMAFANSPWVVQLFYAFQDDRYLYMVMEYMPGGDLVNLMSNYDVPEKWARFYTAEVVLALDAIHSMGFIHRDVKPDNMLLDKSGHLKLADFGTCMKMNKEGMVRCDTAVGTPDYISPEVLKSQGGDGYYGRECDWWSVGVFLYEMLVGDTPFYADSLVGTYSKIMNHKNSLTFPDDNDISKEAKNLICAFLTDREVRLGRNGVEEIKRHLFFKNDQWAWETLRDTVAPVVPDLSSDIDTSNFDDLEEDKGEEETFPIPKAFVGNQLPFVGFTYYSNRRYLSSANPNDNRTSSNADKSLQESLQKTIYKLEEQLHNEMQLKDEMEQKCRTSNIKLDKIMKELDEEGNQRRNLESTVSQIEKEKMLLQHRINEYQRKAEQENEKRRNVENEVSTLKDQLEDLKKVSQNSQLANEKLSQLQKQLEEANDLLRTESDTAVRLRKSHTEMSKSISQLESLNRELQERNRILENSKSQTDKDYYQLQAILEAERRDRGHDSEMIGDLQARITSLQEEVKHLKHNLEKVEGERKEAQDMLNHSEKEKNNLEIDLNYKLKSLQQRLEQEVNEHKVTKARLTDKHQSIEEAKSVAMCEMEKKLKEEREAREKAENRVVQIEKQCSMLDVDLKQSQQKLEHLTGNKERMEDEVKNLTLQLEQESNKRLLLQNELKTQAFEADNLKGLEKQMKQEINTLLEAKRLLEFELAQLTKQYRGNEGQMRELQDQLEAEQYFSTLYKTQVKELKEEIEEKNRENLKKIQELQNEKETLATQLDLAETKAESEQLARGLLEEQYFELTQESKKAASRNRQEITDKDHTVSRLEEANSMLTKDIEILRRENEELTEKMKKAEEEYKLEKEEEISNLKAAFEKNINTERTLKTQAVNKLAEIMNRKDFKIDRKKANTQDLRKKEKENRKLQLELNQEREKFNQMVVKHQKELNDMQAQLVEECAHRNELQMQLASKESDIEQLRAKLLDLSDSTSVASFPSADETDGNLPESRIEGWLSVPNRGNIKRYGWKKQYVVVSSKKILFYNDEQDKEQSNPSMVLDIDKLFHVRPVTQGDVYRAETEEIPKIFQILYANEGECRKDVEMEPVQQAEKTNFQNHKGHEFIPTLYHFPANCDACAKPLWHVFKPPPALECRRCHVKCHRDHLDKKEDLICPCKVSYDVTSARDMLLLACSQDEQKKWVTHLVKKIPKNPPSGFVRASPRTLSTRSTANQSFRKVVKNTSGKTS

SMILES: CC1=C(C(=O)Nc2ccc3[nH]ncc3c2)C(c2ccc(F)cc2)N=C(c2cnccn2)N1 (configuration not stated)
- IC50 [1]: 105 nM

SMILES: CC1=C(C(=O)Nc2ccc3[nH]ncc3c2)C(c2ccc(Cl)cc2F)N=C(c2ccnc(Cl)c2)N1 (configuration not stated)
- bioavailability [2]: 7%
- Vdss [3]: 1.6 L/kg
- t1/2 [4]: 1.03 h
- IC50 [5]: 5500 nM
- IC50 [6]: 5700 nM
- IC50 [1]: 4 nM

SMILES: CC1=C(C(=O)Nc2ccc3[nH]nc(C)c3c2)C(c2ccc(Cl)cc2F)N=C(c2ccnc(Cl)c2)N1 (configuration not stated)
- IC50 [1]: 15 nM

SMILES: CC1=C(C(=O)Nc2ccc3[nH]ncc3c2)C(c2ccc(F)cc2)N=C(c2ccccn2)N1 (configuration not stated)
- IC50 [1]: 180 nM

SMILES: CCOc1cc(C2=NC(c3ccc(Cl)cc3F)C(C(=O)Nc3cc4cn[nH]c4cc3F)=C(C)N2)ccn1 (configuration not stated)
- IC50 [1]: 11 nM

SMILES: CC1=C(C(=O)Nc2cc3cn[nH]c3cc2F)C(c2ccc(Cl)cc2F)N=C(c2ccnc(Cl)c2)N1 (configuration not stated)
- bioavailability [11]: 19%
- half-life [12]: 2.2 h
- bioavailability [2]: 49%
- Vdss [3]: 2 L/kg
- t1/2 [4]: 1.75 h
- IC50 [13]: 2500 nM
- IC50 [6]: 5200 nM
- IC50 [14]: 256 nM
- IC50 [15]: 1000 nM
- IC50 [16]: 398 nM
- IC50 [1]: 6 nM
- Activity [17]: 25 mmHg

SMILES: COc1cc(C2=NC(c3ccc(Cl)cc3F)C(C(=O)Nc3cc4cn[nH]c4cc3F)=C(C)N2)ccn1 (configuration not stated)
- bioavailability [2]: 53%
- Vdss [3]: 2.5 L/kg
- t1/2 [4]: 0.767 h
- IC50 [5]: 5300 nM
- IC50 [13]: 8400 nM
- IC50 [6]: 2100 nM
- IC50 [1]: 6 nM

SMILES: CC1=C(C(=O)Nc2cc3cn[nH]c3cc2F)C(c2ccc(Cl)cc2F)N=C(c2ccnc(C)c2)N1 (configuration not stated)
- IC50 [1]: 10 nM

SMILES: CC1=C(C(=O)Nc2ccc3[nH]ncc3c2)C(c2ccc(F)cc2)N=C(c2ccccc2)N1 (configuration not stated)
- bioavailability [18]: 16%
- Vd [19]: 0.8 L/kg
- half-life [20]: 1 h
- clearance [21]: 15 mL/min/kg
- IC50 [5]: 350 nM
- IC50 [13]: 640 nM
- IC50 [6]: 90 nM
- IC50 [14]: 1300 nM
- IC50 [15]: 4500 nM
- IC50 [16]: 5300 nM
- IC50 [1]: 105 nM

SMILES: COc1ccc(C2=NC(c3ccc(Cl)cc3F)C(C(=O)Nc3ccc4[nH]ncc4c3)=C(C)N2)cn1 (configuration not stated)
- bioavailability [2]: 27%
- IC50 [5]: 2500 nM
- IC50 [6]: 1200 nM
- IC50 [1]: 3 nM

SMILES: COc1ccc(C2=NC(C)C(C(=O)Nc3ccc4[nH]ncc4c3)=C(C)N2)cc1 (configuration not stated)
- IC50 [1]: 863 nM

SMILES: COc1cc(C2=NC(c3ccc(Cl)cc3F)C(C(=O)Nc3ccc4[nH]ncc4c3)=C(C)N2)ccn1 (configuration not stated)
- bioavailability [2]: 21%
- Vdss [3]: 2 L/kg
- t1/2 [4]: 0.567 h
- IC50 [5]: 4300 nM
- IC50 [6]: 3700 nM
- IC50 [1]: 2 nM

SMILES: CC1=C(C(=O)Nc2ccc3[nH]ncc3c2)C(c2ccc(F)cc2)NC(=O)N1 (configuration not stated) [GSK-180736A]
- Vd [25]: 2.2 L/kg
- clearance [26]: 49 mL/min/kg
- half-life [27]: 0.7 h
- IC50 [14]: 760 nM

The next lines start with the values.

- bioavailability [7]: 35%
- Vd [8]: 5.1 L/kg
- half-life [9]: 2.82 h
- clearance [10]: 55 mL/min/kg
- IC50 [1]: 46 nM
SMILES: COc1ccc(C2=NC(c3ccc(F)cc3)C(C(=O)Nc3ccc4[nH]ncc4c3)=C(C)N2)cc1 (configuration not stated)

- IC50 [1]: 104 nM
SMILES: CC1=C(C(=O)Nc2ccc3[nH]ncc3c2)C(c2ccc(F)cc2)N=C(c2ccc(C)c(F)c2)N1 (configuration not stated)

- bioavailability [7]: 0%
- IC50 [1]: 8 nM
SMILES: CC1=C(C(=O)Nc2ccc3[nH]ncc3c2)C(c2ccc(F)cc2)N=C(c2ccncc2)N1 (configuration not stated)

- IC50 [1]: 129 nM
SMILES: CC1=C(C(=O)Nc2ccc3[nH]ncc3c2)C(c2ccc(F)cc2)N=C(c2cccc(C)c2)N1 (configuration not stated)

- IC50 [1]: 75 nM
SMILES: CC1=C(C(=O)Nc2ccc3[nH]ncc3c2)C(c2ccc(F)cc2)N=C(c2ccc(C(F)(F)F)nc2)N1 (configuration not stated) [GSK-317354A]

- IC50 [1]: 129 nM
SMILES: CC1=C(C(=O)Nc2ccc3[nH]ncc3c2)C(c2ccc(F)cc2)N=C(c2ccc(Cl)cc2)N1 (configuration not stated)

- bioavailability [2]: 58%
- Vd [22]: 6.46 L/kg
- half-life [23]: 1.13 h
- clearance [24]: 108 mL/min/kg
- IC50 [5]: 2700 nM
- IC50 [6]: 200 nM
- IC50 [14]: 200 nM
- IC50 [15]: 2100 nM
- IC50 [16]: 510 nM
- IC50 [1]: 5 nM
SMILES: COc1ccc(C2=NC(c3ccc(Cl)cc3F)C(C(=O)Nc3ccc4[nH]ncc4c3)=C(C)N2)cc1 (configuration not stated)

- IC50 [1]: 68 nM
SMILES: COc1ccc(C2=NC(c3ccc(S(N)(=O)=O)cc3)C(C(=O)Nc3ccc4[nH]ncc4c3)=C(C)N2)cc1 (configuration not stated)

- IC50 [1]: 150 nM
SMILES: COc1ccc(C2=NC(c3ccc(S(C)(=O)=O)cc3)C(C(=O)Nc3ccc4[nH]ncc4c3)=C(C)N2)cc1 (configuration not stated)

- IC50 [1]: 101 nM
SMILES: CC1=C(C(=O)Nc2ccc3[nH]ncc3c2)C(c2ccc(F)cc2)N=C(c2ccc(C)cc2)N1 (configuration not stated)

- IC50 [1]: 26 nM
SMILES: COc1ccc(C2=NC(c3ccc(C(F)(F)F)cc3F)C(C(=O)Nc3ccc4[nH]ncc4c3)=C(C)N2)cc1 (configuration not stated)

- IC50 [1]: 288 nM
SMILES: CC1=C(C(=O)Nc2ccc3[nH]ncc3c2)C(c2ccc(F)cc2)N=C(c2cccc(C(F)(F)F)c2)N1 (configuration not stated)
